Results on one molecule are retold here after patent US20040034084A1, “Methods for using JNK inhibitors for treating or preventing disease-related wasting” (Celgene Corporation, priority 2002, published 2004).

Structures are written as SMILES. A value given as a limit tells only on which side of the number the result lay.

A short description of data set [1]: Brain-blood plasma distribution in vivo. On the set-up: species or system Sprague-Dawley rats. The settings on record: rat. The method, then: 5-Amino-anthra(9,1-cd)isothiazol-6-one was administered intravenously (10 mg/kg) into the veins of Sprague-Dawley rats. After 2 hr, blood samples were obtained from the animals and their vascular systems were perfused with approximately 100 mL of saline to rid their brains of blood. The brains were removed from the animals, weighed, and homogenized in a 50 mL conical tube containing 10 equivalents (w/v) of methanol/saline (1:1) using a Tissue Tearer (Fischer Scientific). The homogenized material was extracted by adding 600 μL of cold methanol to 250 μL of brain homogenate vortexed for 30 sec and subjected to centrifugation for 5 min. After centrifugation, 600 μL of the resulting supernatant was transferred to a clean tube and evaporated at room temperature under reduced pressure to provide a pellet. The resulting pellet was reconstituted in 250 μL of 30% aqueous methanol to provide a brain homogenate analysis sample. A plasma analysis sample was obtained using the brain homogenate analysis sample procedure described above by substituting plasma for brain homogenate. Standard plasma samples and standard brain homogenate samples containing known amounts of 5-amino-anthra(9,1-cd)isothiazol-6-one were also prepared by adding 5 μL of serial dilutions (50:1) of a solution of 5-amino-anthra(9,1-cd)isothiazol-6-one freshly prepared in cold ethanol to 250 μL of control rat plasma (Bioreclamation of Hicksville, N.Y.) or control brain homogenate. The standard plasma samples and standard brain homogenate samples were then subjected to the same extraction by protein precipitation, centrifugation, evaporation, and reconstitution procedure used for the brain homogenate to provide brain homogenate standard analysis samples and plasma standard analysis samples. The brain homogenate analysis samples, plasma analysis samples, and standard analysis samples were analyzed and compared using HPLC by injecting 100 μL of a sample onto a 5 μm C-18 Luna column (4.6 mm×150 mm, commercially available from Phenomenex of Torrance, Calif.) and eluting at 1 mL/min with a linear gradient of 30% aqueous acetonitrile containing 0.1% trifluoroacetic acid to 90% aqueous acetonitrile containing 0.1% trifluoroacetic acid over 8 minutes and holding at 90% aqueous acetonitrile containing 0.1% trifluoroacetic acid for 3 min. with absorbance detection at 450 nm. […] The concentration of 5-amino-anthra(9,1-cd) isothiazol-6-one in the brain and plasma was determined by comparing HPLC chromatograms obtained from the brain homogenate analysis samples and plasma analysis samples to standard curves constructed from analysis of the brain homogenate standard analysis samples and the plasma standard analysis samples, respectively. […]

Data set [2] concerns the target T1, IKK2 (Homo sapiens, UniProt O14920).
T1 sequence (O14920 1-756): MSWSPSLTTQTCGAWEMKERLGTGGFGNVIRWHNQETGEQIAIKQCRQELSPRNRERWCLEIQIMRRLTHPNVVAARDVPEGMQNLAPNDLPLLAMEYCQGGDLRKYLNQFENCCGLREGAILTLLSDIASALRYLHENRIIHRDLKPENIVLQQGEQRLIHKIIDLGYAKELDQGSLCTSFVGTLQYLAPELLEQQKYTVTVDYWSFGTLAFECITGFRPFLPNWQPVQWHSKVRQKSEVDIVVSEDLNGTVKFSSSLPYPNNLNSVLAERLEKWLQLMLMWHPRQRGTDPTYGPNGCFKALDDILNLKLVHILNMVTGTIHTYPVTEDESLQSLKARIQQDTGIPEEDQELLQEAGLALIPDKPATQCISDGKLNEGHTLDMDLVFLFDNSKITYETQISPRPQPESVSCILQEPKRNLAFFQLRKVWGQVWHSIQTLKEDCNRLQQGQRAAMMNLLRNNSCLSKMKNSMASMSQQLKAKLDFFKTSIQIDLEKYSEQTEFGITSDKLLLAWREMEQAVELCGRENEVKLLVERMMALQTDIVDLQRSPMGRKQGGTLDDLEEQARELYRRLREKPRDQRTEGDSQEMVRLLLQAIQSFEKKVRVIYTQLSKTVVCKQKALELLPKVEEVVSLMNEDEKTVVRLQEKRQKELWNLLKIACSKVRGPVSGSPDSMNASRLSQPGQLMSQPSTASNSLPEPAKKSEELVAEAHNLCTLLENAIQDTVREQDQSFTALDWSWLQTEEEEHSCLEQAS
The experiment in a line: Selectivity for JNK: protein kinase panel, IKK2. In kind it is biochemical. The procedure:
5-Amino-anthra(9,1-cd)isothiazol-6-one was also assayed for its inhibitory activity against several protein kinases, listed below, using techniques known to those skilled in art (See, e.g., Protein Phosphorylation, Sefton & Hunter, Eds., Academic Press, pp. 97-367, 1998).

Data set [3] has as its target T2, His6-JNK3 (Homo sapiens, UniProt P53779).
T2 construct: His6 (N)
The experiment in a line: JNK assay (c-Jun phosphorylation), JNK3. In kind it is biochemical. To be noted: read-out: IC50 for JNK3 (c-Jun phosphorylation reduced to 50% of control). The method, then:
To 10 μL of 5-amino-anthra(9,1-cd)isothiazol-6-one in 20% DMSO/80% dilution buffer containing of 20 mM HEPES (pH 7.6), 0.1 mM EDTA, 2.5 mM magnesium chloride, 0.004% Triton ×100, 2 μg/mL leupeptin, 20 mM β-glycerolphosphate, 0.1 mM sodium vanadate, and 2 mM DTT in water was added 30 μL of 50-200 ng His6-JNK1, JNK2, or JNK3 in the same dilution buffer. The mixture was pre-incubated for 30 minutes at room temperature. Sixty microliter of 10 μg GST-c-Jun(1-79) in assay buffer consisting of 20 mM HEPES (pH 7.6), 50 mM sodium chloride, 0.1 mM EDTA, 24 mM magnesium chloride, 1 mM DTT, 25 mM PNPP, 0.05% Triton ×100, 11 μM ATP, and 0.5 μCi γ-32P ATP in water was added and the reaction was allowed to proceed for 1 hour at room temperature. The c-Jun phosphorylation was terminated by addition of 150 μL of 12.5% trichloroacetic acid. After 30 minutes, the precipitate was harvested onto a filter plate, diluted with 50 μL of the scintillation fluid and quantified by a counter. The IC50 values were calculated as the concentration of 5-amino-anthra(9,1-cd)isothiazol-6-one at which the c-Jun phosphorylation was reduced to 50% of the control value. Compounds that inhibit JNK preferably have an IC50 value ranging 0.01-10 μM in this assay. 5-Amino-anthra(9,1-cd)isothiazol-6-one has an IC50 according to this assay of 1 μM for JNK2 and 400 nM for JNK3.

T2 sequence (P53779 whole entry): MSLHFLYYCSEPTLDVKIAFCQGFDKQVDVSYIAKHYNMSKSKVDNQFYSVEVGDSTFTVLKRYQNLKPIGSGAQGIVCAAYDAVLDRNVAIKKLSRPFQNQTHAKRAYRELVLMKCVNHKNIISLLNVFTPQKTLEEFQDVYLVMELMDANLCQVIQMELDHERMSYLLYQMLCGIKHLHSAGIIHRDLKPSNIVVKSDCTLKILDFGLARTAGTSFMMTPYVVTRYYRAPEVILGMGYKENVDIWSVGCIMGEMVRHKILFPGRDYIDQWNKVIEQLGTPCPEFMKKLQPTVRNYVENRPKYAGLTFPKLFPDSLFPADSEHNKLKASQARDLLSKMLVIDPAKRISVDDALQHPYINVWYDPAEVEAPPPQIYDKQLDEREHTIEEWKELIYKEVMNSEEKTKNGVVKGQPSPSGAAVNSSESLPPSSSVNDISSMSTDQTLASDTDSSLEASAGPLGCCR

As for `Nc1ccc2snc3c2c1C(=O)c1ccccc1-3` [5-amino-anthra(9,1-cd)isothiazol-6-one], the Kp at 2 h in data set [1] (Sprague-Dawley, iv, 10 mg/kg intravenously, 2 hr post-dose, assuming 1 g brain tissue equivalent to 1 mL plasma, read-out: Brain-plasma concentration ratio) was roughly 9. Also, the concentration at 2 h in data set [1] (Sprague-Dawley, plasma, iv, 10 mg/kg intravenously, 2 hr post-dose) was roughly 7 µM. Further, the Brain-drug concentration entry in data set [1] (10 mg/kg intravenously, 2 hr post-dose) was “approximately 65 nmole/g”. In addition, the Blood-brain barrier crossing entry in data set [1] (following intravenous administration) was “crosses the blood-brain barrier to a significant extent”. Moreover, the IC50 (usually the midpoint of a concentration-inhibition curve) in data set [2] was greater than 30000 nM; in data set [3], 400 nM.
